Assay results from US9834554B2, “BTK inhibitors” (MERCK SHARP & DOHME CORP., priority 2013, dated 2017).

Molecular target: BTK enzyme (recombinant full-length BTK, hBTK) (Homo sapiens (Human), UniProt Q06187)
Test: Btk enzyme activity assay, LANCE TR-FRET
Conditions: read-out: BTK binding IC50; 50 pM hBTK, 2 μM biotin-A5-peptide, 25 μM ATP; 60 minute compound & enzyme incubation
Procedure: Also BTK enzymatic activity was determined with the LANCE (Lanthanide Chelate Excite) TR-FRET (Time-resolved fluorescence resonance energy transfer) assay. […] Phosphorylation reactions were allowed to proceed for 120 minutes. […] After 60 minutes incubation with detection reagents, reaction plates were read on a PerkinElmer EnVision plate reader using standard TR-FRET protocol. Briefly, excitation of donor molecules (Eu-chelate:anti-phospho-antibody) with a laser light source at 337 nm produces energy that can be transferred to Dylight-650 acceptor molecules if this donor:acceptor pair is within close proximity. Fluorescence intensity at both 665 nm (acceptor) and 615 nm (donor) are measured and a TR-FRET ratio calculated for each well (acceptor intensity/donor intensity).
Btk Enzyme Activity Assay Method
BTK enzymatic activity was determined with the LANCE (Lanthanide Chelate Excite) TR-FRET (Time-resolved fluorescence resonance energy transfer) assay. […] Phosphorylation reactions were allowed to proceed for 120 minutes. […] After 60 minutes incubation with detection reagents, reaction plates were read on a PerkinElmer EnVision plate reader using standard TR-FRET protocol. Briefly, excitation of donor molecules (Eu-chelate:anti-phospho-antibody) with a laser light source at 337 nm produces energy that can be transferred to Dylight-650 acceptor molecules if this donor:acceptor pair is within close proximity. Fluorescence intensity at both 665 nm (acceptor) and 615 nm (donor) are measured and a TR-FRET ratio calculated for each well (acceptor intensity/donor intensity).

Chain of BTK enzyme (recombinant full-length BTK, hBTK) (Q06187 whole entry): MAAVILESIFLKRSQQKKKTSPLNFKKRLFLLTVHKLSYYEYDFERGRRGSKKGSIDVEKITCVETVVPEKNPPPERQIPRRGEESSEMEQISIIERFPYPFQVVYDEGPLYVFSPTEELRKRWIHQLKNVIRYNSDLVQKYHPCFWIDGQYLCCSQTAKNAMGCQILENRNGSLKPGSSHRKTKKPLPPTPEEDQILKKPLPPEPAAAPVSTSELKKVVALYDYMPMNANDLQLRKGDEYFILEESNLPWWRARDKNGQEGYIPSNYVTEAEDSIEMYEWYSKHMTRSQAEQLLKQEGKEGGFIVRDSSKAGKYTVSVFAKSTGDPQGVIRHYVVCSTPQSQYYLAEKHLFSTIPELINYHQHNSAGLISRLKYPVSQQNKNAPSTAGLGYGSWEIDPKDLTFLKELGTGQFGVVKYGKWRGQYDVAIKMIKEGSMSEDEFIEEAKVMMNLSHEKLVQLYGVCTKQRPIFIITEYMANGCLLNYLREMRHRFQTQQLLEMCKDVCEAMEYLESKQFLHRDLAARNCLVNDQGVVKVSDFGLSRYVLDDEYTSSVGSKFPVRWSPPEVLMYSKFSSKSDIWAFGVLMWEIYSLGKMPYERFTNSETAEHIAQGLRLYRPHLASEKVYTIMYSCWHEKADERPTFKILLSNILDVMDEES

`CCC(=O)N1CCC[C@@H](c2nn(-c3ccc(C(=O)Nc4cc(C(F)(F)F)ccn4)cc3)c3c(N)nccc23)C1` [Example 11, 4-{7-amino-3-[(3R)-1-propanoylpiperidin-3-yl]-1H-pyrazolo[3,4-c]pyridin-1-yl}-N-[4-(trifluoromethyl)pyridin-2-yl]benzamide] was tested, and the IC50 was 0.57 nM.
`C[C@H]1CC[C@@H](c2nn(-c3ccc(C(=O)Nc4cc(C5CC5)ccn4)cc3)c3c(N)nccc23)CN1C(=O)C1CC1` [Example 31, 4-{7-amino-3-[(3R,6S)-1-(cyclopropylcarbonyl)-6-methylpiperidin-3-yl]-1H-pyrazolo[3,4-c]pyridin-1-yl}-N-(4-cyclopropylpyridin-2-yl)benzamide] gave an IC50 of 1.3 nM.
`CC(C)C(=O)N1CCC[C@@H](c2nn(-c3ccc(C(=O)Nc4cc(C(F)(F)F)ccn4)cc3)c3c(N)nccc23)C1` [Example 19, 4-{7-amino-3-[(3R)-1-(2-methylpropanoyl)piperidin-3-yl]-1H-pyrazolo[3,4-c]pyridin-1-yl}-N-[4-(trifluoromethyl)pyridin-2-yl]benzamide] was tested, and the IC50 was 1.2 nM.
In the case of `Nc1nccc2c([C@@H]3CCCN(C(=O)C4CCC4)C3)nn(-c3ccc(C(=O)Nc4cc(C(F)(F)F)ccn4)cc3)c12` [Example 20, 4-{7-amino-3-[(3R)-1-(cyclobutylcarbonyl)piperidin-3-yl]-1H-pyrazolo[3,4-c]pyridin-1-yl}-N-[4-(trifluoromethyl)pyridin-2-yl]benzamide], the IC50 is reported as 1.6 nM.
Work on `Nc1nccc2c([C@@H]3CCCN(C(=O)C4CC4(F)F)C3)nn(-c3ccc(C(=O)Nc4cc(C(F)(F)F)ccn4)cc3)c12` (stereo partly drawn) [Example 12, 4-(7-amino-3-{(3R)-1-[(2,2-difluorocyclopropyl)carbonyl]piperidin-3-yl}-1H-pyrazolo[3,4-c]pyridin-1-yl)-N-[4-(trifluoromethyl)pyridin-2-yl]benzamide] yielded an IC50 of 3 nM.
`CC(=O)N1CCC[C@@H](c2nn(-c3ccc(C(=O)Nc4cc(C(F)(F)F)ccn4)cc3)c3c(N)nccc23)C1` [Example 21, 4-{3-[(3R)-l-acetylpiperidin-3-yl]-7-amino-1H-pyrazolo[3,4-c]pyridin-1-yl}-N-[4-(trifluoromethyl)pyridin-2-yl]benzamide] gave an IC50 of 0.53 nM.
For `CCC(=O)N1CCO[C@@H](c2nn(-c3ccc(C(=O)Nc4cc(C(F)(F)F)ccn4)cc3)c3c(N)nccc23)C1` [Example 3, 4-{7-amino-3-[(2R)-4-propanoylmorpholin-2-yl]-1H-pyrazolo[3,4-c]pyridin-1-yl}-N-[4-(trifluoromethyl)pyridin-2-yl] benzamide], the IC50 was 1.8 nM.
`CC1(C(=O)N2CCO[C@@H](c3nn(-c4ccc(C(=O)Nc5cc(C(F)(F)F)ccn5)cc4)c4c(N)nccc34)C2)COC1` [Example 1, (R)-4-(7-amino-3-(4-(3-methyloxetane-3-carbonyl)morpholin-2-yl)-1H-pyrazolo[3,4-c]pyridin-1-yl)-N-(4-(trifluoromethyl)pyridin-2-yl)benzamide] was tested, and the IC50 was 2.2 nM.
For `Nc1nccc2c([C@@H]3CCCN(C(=O)c4cnon4)C3)nn(-c3ccc(C(=O)Nc4cc(C(F)(F)F)ccn4)cc3)c12` [Example 13, 4-{7-amino-3-[(3R)-1-(1,2,5-oxadiazol-3-ylcarbonyl)piperidin-3-yl]-1H-pyrazolo[3,4-c]pyridin-1-yl}-N-[4-(trifluoromethyl)pyridin-2-yl]benzamide], the IC50 was 4.7 nM.
`Nc1nccc2c([C@@H]3CCCN(C(=O)C4CC4)C3)nn(-c3ccc(C(=O)Nc4cc(C(F)(F)F)ccn4)cc3)c12` [Example 24, 4-{7-amino-3-[(3R)-1-(cyclopropylcarbonyl)piperidin-3-yl]-1H-pyrazolo[3,4-c]pyridin-1-yl}-N-[4-(trifluoromethyl)pyridin-2-yl]benzamide] was tested, and the IC50 was 0.86 nM.
For `Nc1nccc2c([C@@H]3CC[C@H]4CCC(=O)N4C3)nn(-c3ccc(C(=O)Nc4cc(C(F)(F)F)ccn4)cc3OC3CC3)c12` [Example 39, 4-{7-amino-3-[(6R,8aS)-3-oxooctahydroindolizin-6-yl]-1H-pyrazolo[3,4-c]pyridin-1-yl}-3-(cyclopropyloxy)-N-[4-(trifluoromethyl)pyridin-2-yl] benzamide], the IC50 was 2.8 nM.
`CCOc1cc(C(=O)Nc2cc(C(F)(F)F)ccn2)ccc1-n1nc([C@@H]2CC[C@H]3CCC(=O)N3C2)c2ccnc(N)c21` [Example 41, 4-{7-amino-3-[(6R,8aS)-3-oxooctahydroindolizin-6-yl]-1H-pyrazolo[3,4-c]pyridin-1-yl}-3-ethoxy-N-[4-(trifluoromethyl)pyridin-2-yl] benzamide] was tested, and the IC50 was 0.44 nM.
`C[C@H]1CC[C@@H](c2nn(-c3ccc(C(=O)Nc4cccc(OC5CC5)c4)cc3)c3c(N)nccc23)CN1C(=O)C1(C)COC1` [Example 35, 4-(7-amino-3-((3R,6S)-6-methyl-1-(3-methyloxetane-3-carbonyl)piperidin-3-yl)-1H-pyrazolo[3,4-c]pyridin-1-yl)-N-(3-cyclopropoxyphenyl)benzamide] gave an IC50 of 0.96 nM.
In the case of `COc1cc(C(=O)Nc2cccc(C(F)(F)F)c2)ccc1-n1nc([C@@H]2CC[C@H](C)N(C(=O)C3CC3)C2)c2ccnc(N)c21` [Example 37, 4-(7-amino-3-((3R,6S)-1-(cyclopropanecarbonyl)-6-methylpiperidin-3-yl)-1H-pyrazolo[3,4-c]pyridin-1-yl)-3-methoxy-N-(3-(trifluoromethyl)phenyl)benzamide], the IC50 is reported as 2.1 nM.
For `CCOCC(=O)N1CCC[C@@H](c2nn(-c3ccc(C(=O)Nc4cc(C(F)(F)F)ccn4)cc3)c3c(N)nccc23)C1` [Example 22, 4-{7-amino-3-[(3R)-1-(ethoxyacetyl)piperidin-3-yl]-1H-pyrazolo[3,4-c]pyridin-1-yl}-N-[4-(trifluoromethyl)pyridin-2-yl]benzamide], the IC50 was 1.2 nM.
Molecule `CC(=O)N1CCO[C@@H](c2nn(-c3ccc(C(=O)Nc4cc(C(F)(F)F)ccn4)cc3)c3c(N)nccc23)C1` [Example 2, 4-{3-[(2R)-4-acetylmorpholin-2-yl]-7-amino-1H-pyrazolo[3,4-c]pyridin-1-yl}-N-[4-(trifluoromethyl)pyridin-2-yl] benzamide] has an IC50 of 2.9 nM.
`COc1ccnc(NC(=O)c2ccc(-n3nc([C@H]4CN(C(C)=O)CCO4)c4ccnc(N)c43)cc2)c1` [Example 6, 4-{3-[(2R)-4-acetylmorpholin-2-yl]-7-amino-1H-pyrazolo[3,4-c]pyridin-1-yl}-N-(4-methoxypyridin-2-yl)benzamide] was tested, and the IC50 was 28.8 nM.
Work on `Nc1nccc2c([C@@H]3CCCN(C(=O)C4CC(F)(F)C4)C3)nn(-c3ccc(C(=O)Nc4cc(C(F)(F)F)ccn4)cc3)c12` [Example 17, 4-(7-amino-3-{(3R)-1-[(3,3-difluorocyclobutyl)carbonyl]piperidin-3-yl}-1H-pyrazolo[3,4-c]pyridin-1-yl)-N-[4-(trifluoromethyl)pyridin-2-yl]benzamide] yielded an IC50 of 2.5 nM.
With `Nc1nccc2c([C@@H]3CCCN(C(=O)CC4CCC4)C3)nn(-c3ccc(C(=O)Nc4cc(C(F)(F)F)ccn4)cc3)c12` [Example 14, 4-{7-amino-3-[(3R)-1-(cyclobutylacetyl)piperidin-3-yl]-1H-pyrazolo[3,4-c]pyridin-1-yl}-N-[4-(trifluoromethyl)pyridin-2-yl]benzamide] the IC50 was 3.5 nM.
For `C[C@H]1CC[C@@H](c2nn(-c3ccc(C(=O)Nc4cc(C5CC5)ccn4)cc3)c3c(N)nccc23)CN1C(=O)C1(C)COC1` [Example 30, 4-(7-amino-3-((3R,6S)-6-methyl-1-(3-methyloxetane-3-carbonyl)piperidin-3-yl)-1H-pyrazolo[3,4-c]pyridin-1-yl)-N-(4-cyclopropylpyridin-2-yl)benzamide], the IC50 was 0.98 nM.
For `COCC(=O)N1CCC[C@@H](c2nn(-c3ccc(C(=O)Nc4cc(C(F)(F)F)ccn4)cc3)c3c(N)nccc23)C1` [Example 18, 4-{7-amino-3-[(3R)-1-(methoxyacetyl)piperidin-3-yl]-1H-pyrazolo[3,4-c]pyridin-1-yl}-N-[4-(trifluoromethyl)pyridin-2-yl]benzamide], the IC50 was 0.9 nM.
`C[C@H]1CC[C@@H](c2nn(-c3ccc(C(=O)Nc4cccc(OC5CC5)c4)cc3)c3c(N)nccc23)CN1C(=O)C1CC1` [Example 34, 4-(7-amino-3-((3R,6S)-1-(cyclopropanecarbonyl)-6-methylpiperidin-3-yl)-1H-pyrazolo[3,4-c]pyridin-1-yl)-N-(3-cyclopropoxyphenyl)benzamide] showed an IC50 of 0.87 nM.
In the case of `COc1ccnc(NC(=O)c2ccc(-n3nc([C@H]4CN(C(=O)C5(C)COC5)CCO4)c4ccnc(N)c43)cc2)c1` [Example 8, 4-(7-amino-3-{(2R)-4-[(3-methyloxetan-3-yl)carbonyl]morpholin-2-yl}-1H-pyrazolo[3,4-c]pyridin-1-yl)-N-(4-methoxypyridin-2-yl)benzamide], the IC50 is reported as 42.1 nM.
`C[C@H](O)C(=O)N1C[C@H](c2nn(-c3ccc(C(=O)Nc4cc(C5CC5)ccn4)cc3)c3c(N)nccc23)CC[C@@H]1C` [Example 32, 4-(7-amino-3-{(3R,6S)-1-[(2S)-2-hydroxypropanoyl]-6-methylpiperidin-3-yl}-1H-pyrazolo[3,4-c]pyridin-1-yl)-N-(4-cyclopropylpyridin-2-yl)benzamide] showed an IC50 of 1.6 nM.
Molecule `CC1(C(=O)N2CCC[C@@H](c3nn(-c4ccc(C(=O)Nc5cc(C(F)(F)F)ccn5)cc4)c4c(N)nccc34)C2)CC1` [Example 26, 4-(7-amino-3-{(3R)-1-[(1-methylcyclopropyl)carbonyl]piperidin-3-yl}-1H-pyrazolo[3,4-c]pyridin-1-yl)-N-[4-(trifluoromethyl)pyridin-2-yl]benzamide] has an IC50 of 0.81 nM.
In the case of `CO[C@@H](C)C(=O)N1C[C@H](c2nn(-c3ccc(C(=O)Nc4cc(C5CC5)ccn4)cc3)c3c(N)nccc23)CC[C@@H]1C` [Example 33, 4-(7-amino-3-{(3R,6S)-1-[(2S)-2-methoxypropanoyl]-6-methylpiperidin-3-yl}-1H-pyrazolo[3,4-c]pyridin-1-yl)-N-(4-cyclopropylpyridin-2-yl)benzamide], the IC50 is reported as 2 nM.
`COCCOCC(=O)N1CCC[C@@H](c2nn(-c3ccc(C(=O)Nc4cc(C(F)(F)F)ccn4)cc3)c3c(N)nccc23)C1` [Example 23, 4-(7-amino-3-{(3R)-1-[(2-methoxyethoxy)acetyl]piperidin-3-yl}-1H-pyrazolo[3,4-c]pyridin-1-yl)-N-[4-(trifluoromethyl)pyridin-2-yl]benzamide] was tested, and the IC50 was 1.2 nM.
